From patent publication US20160333019A1, “SYNTHESIS AND FORMULATIONS OF PORPHYRIN COMPOUNDS” (Aeolus Sciences, Inc., priority 2013, published 2016)

Assays:
Type in all cases: physicochemical
[1] = Study 2: 75 mg/mL Formula (VI) in WFI at pH 7.0, 14 days at 60° C.
Method: The samples were filled in glass vials and capped with an air headspace. All samples were tested and evaluated for physicochemical stability under the storage conditions at 2-8 and 60° C. after 0, 3, 7 and 14 days.
About 10 g of WFI was placed in the container including a stir bar.
The pH was measured at approximately hourly intervals and at about 16 hours and 24 hours. At the end of the 16-24 hour hold/mix, the pH of the solution was adjusted to pH 7.0 with either HCl or NaOH and mixed for approximately 15 minutes. The solution was filtered through a PVDF, 0.22 μm filter into a clean container and its pH measured.
The pH was measured at 30 minutes then hourly thereafter for the 16-24 hour time period. Once the solution pH and osmolality stabilized, the air sparging was stopped. The solution was adjusted to pH 7.0 with either HCl or NaOH and mixed for about 15 minutes. The solution was filtered through a PVDF, 0.22 μm filter into clean container and the pH measured.
Both samples were then stored at 60° C. and samples taken at 0, 3, 7 and 14 days from both containers and to measure pH. […]

[2] = Study 5: 75 mg/mL Formula (VI) in WFI at various pH under ICH storage temperatures; conditions: for pH change: 75 mg/mL at pH 6
Method: It was noticeable from Study 2 that drug stability was dependent on the pH. The lower the pH, the greater the chemical stability. […] An accelerated 60° C. storage temperature was also accessed in order to compare and generate a pH-stability profile of drug in water.
(§1) About 10 g of WFI was placed in the container including a stir bar. […] The pH was measured and the solution was mixed at room temperature for 16-24 hours. At the end of the 16-24 hour hold/mix, the pH of solution was adjusted to pH 4.0 with either HCl or NaOH and mixed for about 15 minutes. The solution was filtered through a PVDF, 0.22 μm filter by discarding about 1 mL prior to placing about 4-5 mL into each of four separate clean containers (A, B, C, D). The pH of the samples was then measured. Solution A was stored at 2-8° C., solution B at 25° C., solution C at 30° C. and solution D at 40° C. A sample was removed from each container after 3, 7 and 14 days the pH measured.
as §1, with “5.0” for “4.0”
as §1, with “6.0” for “4.0”

[3] = pH titration of 75 mg/mL Formula (VI) in WFI with 1.0N HCl; conditions: 75 mg/mL in water titrated with hydrochloric acid
Method: A solution of 75 mg/mL compound was prepared by dissolving in WFI and gently mixing for 16-24 hours prior to the titration. The titration of compound with a strong acid provided information for this compound in terms of “apparent” pKa.
In addition, this mixing would allow oxidation of trace Mn (II) compound to the higher oxidation state of Mn (III). The drug solution was titrated with 1.0 N HCl at 30 μL increments.
About 10 g of WFI was placed in the container including stir bar. […] The solution was them mixed at room temperature for 16-24 hours. At the end of the 16-24 hour hold/mix, the solution was titrated from its starting pH of about 9 down to pH 3 using 1N HCl.
Due to a big molecular structure (MW=1033), the sample preparation required an unusually long mixing process for 16-24 hours in order to complete the dissociation of drug and the oxidation of trace […] compound into a higher oxidation state of Mn (III). This mixing process was crucial to achieve the final pH equilibrium.

[4] = 75 mg/mL, 60° C. for 14 days, within pH profile range 4.1-6.5

pH decrease ([1]; 75 mg/mL in water at pH 7.0, 60° C., after 14 days): 1-2 pH units
pH stability ([1]; 75 mg/mL in water at pH 7.0, refrigerated condition): relatively stable
chemical stability, air sparged versus non-sparged sample ([1]; 75 mg/mL in water pH 7, 60° C.): better stability
degradation lower than that from the control sample ([1]; 75 mg/mL in water pH 7, all samples stored at 60° C., after 14 days): 3-6%
pH variation ([2]; 75 mg/mL at pH 4 and 5, all storage conditions, after 14 days): ≤ 0.1 pH unit
pH decrease ([2]; 75 mg/mL at pH 5, 60° C., after 14 days): ~0.2 pH units
pH change ([2]; 2-8° C., after 14 days): 0.7 pH units
pH change ([2]; 25° C., after 14 days): 0.5 pH units
pH change ([2]; 40° C., after 14 days): −0.1 pH units
pH change ([2]; 60° C., after 14 days): −0.9 pH units
change of purity assays ([2]; 75 mg/mL in water, samples at pH between 4.1 and 6.8, after 14 days): No significant changes
decrease in drug purity assay ([2]; 75 mg/mL, 60° C. for 14 days, increase of pH between 4.1 and 6.5): ~5%
increase of degradant at RRT 1.56-1.62 [2, 4]: ~8 folds
level of degradant at RRT 1.56-1.62 [2, 4]: 0.4-3.2%
decrease of purity assay ([2]; 60° C. samples, between pH 4.1 and 5.2): ~3%
osmolality ([2]; pH 4 sample, 60° C. storage): 292 mOsm/kg
osmolality ([2]; pH 4 samples, 2-8, 25 and 40° C., after 14 days): 277-280 mOsm/kg
osmolality ([2]; pH 5 sample, 60° C. storage): 302 mOsm/kg
osmolality ([2]; pH 5 samples, 2-8, 25 and 40° C., after 14 days): 273-275 mOsm/kg
osmolality ([2]; pH 6 sample, 60° C. storage): 283 mOsm/kg
osmolality ([2]; pH 6 samples, 2-8, 25 and 40° C., after 14 days): 269-272 mOsm/kg
"apparent" pKa [3]: 9.02
Substance: [5,10,15,20-tetrakis(1,3-diethylimidazolium-2-yl)porphyrinato]manganese(III) chloride hydrate complex [Formula (VI)]
dependence of drug stability on pH ([1]; 75 mg/mL in WFI, 2-8 and 60° C., 0, 3, 7 and 14 days): The lower the pH, the greater the drug stability
